Paper PMC9297976 (Journal of Applied Toxicology, 2021)

Key:
medaka Esr1 (mEsr1) [1] = molecular target: T1, medaka Esr1 (mEsr1) (Oryzias latipes, UniProt P50241); test: cell-based; design: species or system Japanese medaka (Oryzias latipes)
T1 sequence (P50241 1-620): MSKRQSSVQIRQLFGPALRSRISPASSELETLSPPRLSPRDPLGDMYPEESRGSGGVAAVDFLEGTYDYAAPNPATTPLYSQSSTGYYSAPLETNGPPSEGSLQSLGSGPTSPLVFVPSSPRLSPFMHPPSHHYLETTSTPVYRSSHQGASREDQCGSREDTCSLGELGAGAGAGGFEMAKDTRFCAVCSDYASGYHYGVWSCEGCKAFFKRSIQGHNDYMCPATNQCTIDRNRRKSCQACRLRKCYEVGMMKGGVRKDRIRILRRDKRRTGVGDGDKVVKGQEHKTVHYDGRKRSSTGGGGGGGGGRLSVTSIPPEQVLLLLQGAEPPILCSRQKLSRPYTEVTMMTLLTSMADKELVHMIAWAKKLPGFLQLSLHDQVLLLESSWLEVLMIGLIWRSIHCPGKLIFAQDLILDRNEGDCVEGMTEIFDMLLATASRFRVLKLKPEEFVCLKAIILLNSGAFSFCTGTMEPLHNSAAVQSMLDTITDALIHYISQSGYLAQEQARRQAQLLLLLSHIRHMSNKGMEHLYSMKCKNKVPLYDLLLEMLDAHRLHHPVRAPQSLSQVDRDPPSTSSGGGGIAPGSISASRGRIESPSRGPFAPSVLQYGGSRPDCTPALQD

medaka ARβ (mArβ) [2] = molecular target: T2, medaka ARβ (mArβ) (Oryzias latipes, UniProt D1MV73); test: Medaka ARβ reporter gene assay, agonist assay; format: cell-based, Japanese medaka (Oryzias latipes); settings: MAC = 1.0 × 10^−5 M
T2 sequence (D1MV73 1-744): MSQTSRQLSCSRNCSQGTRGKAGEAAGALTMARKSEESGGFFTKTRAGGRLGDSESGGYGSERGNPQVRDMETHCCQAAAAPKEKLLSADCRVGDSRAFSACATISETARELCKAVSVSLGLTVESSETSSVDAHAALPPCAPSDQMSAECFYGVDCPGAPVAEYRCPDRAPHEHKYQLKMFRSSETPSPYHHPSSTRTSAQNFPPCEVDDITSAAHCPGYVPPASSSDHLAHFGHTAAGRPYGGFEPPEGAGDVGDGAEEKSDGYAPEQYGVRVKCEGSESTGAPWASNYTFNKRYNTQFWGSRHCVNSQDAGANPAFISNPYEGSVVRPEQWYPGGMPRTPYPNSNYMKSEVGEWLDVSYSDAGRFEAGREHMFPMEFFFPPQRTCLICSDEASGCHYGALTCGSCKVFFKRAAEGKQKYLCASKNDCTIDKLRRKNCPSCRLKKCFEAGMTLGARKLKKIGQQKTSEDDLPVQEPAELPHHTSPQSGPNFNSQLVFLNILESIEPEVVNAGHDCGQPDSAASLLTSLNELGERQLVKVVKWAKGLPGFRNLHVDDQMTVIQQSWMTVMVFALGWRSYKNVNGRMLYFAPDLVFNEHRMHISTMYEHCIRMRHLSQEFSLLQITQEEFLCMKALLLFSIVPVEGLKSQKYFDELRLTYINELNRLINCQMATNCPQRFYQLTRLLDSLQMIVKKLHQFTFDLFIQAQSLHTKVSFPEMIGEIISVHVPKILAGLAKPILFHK

medaka Esr1 (mEsr1) [3] = molecular target: T1, medaka Esr1 (mEsr1); test: Medaka Esr1 reporter gene assay, antagonist assay; format: cell-based, Japanese medaka (Oryzias latipes); settings: E2 spiked at 1.0 nM (B); MAC = 1.0 × 10^−5 M
medaka ARβ (mArβ) [4] = molecular target: T2, medaka ARβ (mArβ); test: Medaka ARβ reporter gene assay, antagonist assay; format: cell-based, Japanese medaka (Oryzias latipes)
[5] = system: Japanese medaka (Oryzias latipes); test: Fish Short‐Term Reproduction Assay; format: in vivo; settings: for GSI Female / GSI Male / HSI Female / HSI Male / Length Female / Length Male / Weight Female / Weight Male: completion of exposure
[6] = 1,009 ng/L measured, 21 d, sig. ↑ vs control
[7] = measured concentration 112 ng/L
[8] = measured concentration 272 ng/L
[9] = measured concentration 1,009 ng/L

In the case of `C[C@]12CC[C@@H]3c4ccc(O)cc4CC[C@H]3[C@@H]1CCC2=O` [Chemical E1, Estrone], the EC50 (medaka Esr1 (mEsr1) [1]) is reported as 0.0054 µM, the “In vitro positive: Esr” value (medaka Esr1 (mEsr1) [1]; mode of action in which EC50 or PC10 was obtained in RGA) is reported as “Esr” and the Agonistic activity (medaka ARβ (mArβ) [2]) is reported as “NE (MAC = 1.0 × 10^−5 M)”. The Antagonistic activity (medaka Esr1 (mEsr1) [3]) was “NE (MAC = 1.0 × 10^−5 M)^(B)”, the IC50 (medaka ARβ (mArβ) [4]; Antagonistic activity IC50, 11‐KT spiked at 50 nM (D)) was 1.5 µM and the “In vitro positive: aAr” value (medaka ARβ (mArβ) [4]; mode of action in which IC50 or IC30 was obtained in RGA) was “aAr”. For the same molecule, the “Antagonistic activity on mArβ (in words)” value (medaka ARβ (mArβ) [4]; transcriptional activity on mArβ by 11KT) was “inhibitory potency”, the Fertility rate ([5]; 29 ng/L measured, 21 d) was 92 ± 9.8% and the “Hepatic VTG, female” value ([5]; 29 ng/L measured, 21 d) was 652 ± 391 ng/mg‐liver. The “Hepatic VTG, male” value ([5]; 29 ng/L measured, 21 d) was 47.9 ± 54.0 ng/mg‐liver, the Mortality ([5]; 29 ng/L measured, 21 d) was 0.0% and the “Mortality, number of dead fish” value ([5]; 29 ng/L measured, 21 d) was 0. The “Number of fertilized eggs (per female per day)” value ([5]; 29 ng/L measured, 21 d) was 17 ± 4.4, the “Number of total eggs (per female per day)” value ([5]; 29 ng/L measured, 21 d) was 18 ± 3.2 and the “SSC female (joint plates with papillary processes)” value (shortened to “SSC female”) ([5]; 29 ng/L measured, 21 d) was 0 ± 0. For the same molecule, the “SSC male (joint plates with papillary processes)” value (shortened to “SSC male”) ([5]; 29 ng/L measured, 21 d) was 97 ± 14, the Fertility rate ([5]; 112 ng/L measured, 21 d) was 96 ± 1.3% and the “Hepatic VTG, female” value ([5]; 112 ng/L measured, 21 d) was 977 ± 274 ng/mg‐liver. The “Hepatic VTG, male” value ([5]; 112 ng/L measured, 21 d) was 382 ± 351 ng/mg‐liver, the Mortality ([5]; 112 ng/L measured, 21 d) was 0.0% and the “Mortality, number of dead fish” value ([5]; 112 ng/L measured, 21 d) was 0. The “Number of fertilized eggs (per female per day)” value ([5]; 112 ng/L measured, 21 d) was 19 ± 2.4, the “Number of total eggs (per female per day)” value ([5]; 112 ng/L measured, 21 d) was 19 ± 2.6 and the “SSC female” value ([5]; 112 ng/L measured, 21 d) was 0 ± 0. For the same molecule, the “SSC male” value ([5]; 112 ng/L measured, 21 d) was 98 ± 25, the Fertility rate ([5]; 272 ng/L measured, 21 d) was 96 ± 2.8% and the “Hepatic VTG, female” value ([5]; 272 ng/L measured, 21 d) was 1,017 ± 238 ng/mg‐liver. The Mortality ([5]; 272 ng/L measured, 21 d) was 0.0%, the “Mortality, number of dead fish” value ([5]; 272 ng/L measured, 21 d) was 0 and the “Number of fertilized eggs (per female per day)” value ([5]; 272 ng/L measured, 21 d) was 16 ± 2.5. For the same molecule, the “Number of total eggs (per female per day)” value ([5]; 272 ng/L measured, 21 d) was 17 ± 2.5, the “SSC female” value ([5]; 272 ng/L measured, 21 d) was 0 ± 0 and the “SSC male” value ([5]; 272 ng/L measured, 21 d) was 85 ± 14. For the same molecule, the “Hepatic VTG, male” value ([5]; 272 ng/L measured, 21 d, sig. ↑ vs control) was 3,649 ± 665 ng/mg‐liver, the Fertility rate ([5]; 1,009 ng/L measured, 21 d) was 86 ± 3.6% and the Mortality ([5]; 1,009 ng/L measured, 21 d) was 0.0%. For the same molecule, the “Mortality, number of dead fish” value ([5]; 1,009 ng/L measured, 21 d) was 0, the “SSC female” value ([5]; 1,009 ng/L measured, 21 d) was 0 ± 0 and the “SSC male” value ([5]; 1,009 ng/L measured, 21 d) was 85 ± 18. For the same molecule, the “Hepatic VTG, female” value [5, 6] was 1994 ± 1,480 ng/mg‐liver, the “Hepatic VTG, male” value [5, 6] was 5,429 ± 687 ng/mg‐liver and the “Number of total eggs (per female per day)” value ([5]; 1,009 ng/L measured, 21 d, sig. ↓ vs control) was 10 ± 2.0. The “Fecundity, number of total eggs (in words)” value ([5]; 21 d) was “statistically significant decrease”, the “LOEC, elevated hepatic VTG in males” value ([5]; 21 d) was 272 ng/L and the LOECREPRO ([5]; LOEC on reproduction (fecundity and/or fertility)) was 1.009 µg/L. For the same molecule, the minimal effective concentration ([5]; Oryzias latipes, 504 h, read-out: LOECmVTG) was 0.000272 µg/mL, the “Fertility rate (in words)” value ([5]; chemicals with significant decrease of number of total eggs) was “no significant effect” and the “LOECREPRO (reduction in fecundity or fertility)” value ([5]; concentrations without overt toxicity) was 1.009 µg/L. The LOECTOX ([5]; lowest observed effect concentration on mortality) was “ND (>1.009) μg/L”, the “GSI Female” value ([5]; measured concentration 29 ng/L) was 10.7 ± 1.4% and the “GSI Male” value ([5]; measured concentration 29 ng/L) was 1.15 ± 0.31%. The “HSI Female” value ([5]; measured concentration 29 ng/L) was 5.4 ± 0.61%, the “HSI Male” value ([5]; measured concentration 29 ng/L) was 2.0 ± 0.28% and the “Length Female” value ([5]; measured concentration 29 ng/L) was 33.8 ± 1.0 mm. For the same molecule, the “Length Male” value ([5]; measured concentration 29 ng/L) was 35.8 ± 1.7 mm, the “Weight Female” value ([5]; measured concentration 29 ng/L) was 454 ± 56 mg and the “Weight Male” value ([5]; measured concentration 29 ng/L) was 468 ± 85 mg. For the same molecule, the “GSI Female” value [5, 7] was 11.2 ± 1.8%, the “GSI Male” value [5, 7] was 1.17 ± 0.27% and the “HSI Female” value [5, 7] was 5.5 ± 0.77%. For the same molecule, the “HSI Male” value [5, 7] was 2.1 ± 0.54%, the “Length Female” value [5, 7] was 34.3 ± 1.6 mm and the “Length Male” value [5, 7] was 36.5 ± 1.2 mm. The “Weight Female” value [5, 7] was 460 ± 86 mg, the “Weight Male” value [5, 7] was 481 ± 44 mg and the “GSI Female” value [5, 8] was 11.3 ± 1.0%. For the same molecule, the “GSI Male” value [5, 8] was 0.84 ± 0.32%, the “HSI Female” value [5, 8] was 6.0 ± 0.76% and the “HSI Male” value [5, 8] was 2.7 ± 0.38%. For the same molecule, the “Length Female” value [5, 8] was 34.0 ± 1.0 mm, the “Length Male” value [5, 8] was 36.5 ± 1.3 mm and the “Weight Female” value [5, 8] was 417 ± 41 mg. The “Weight Male” value [5, 8] was 464 ± 62 mg, the “GSI Female” value [5, 9] was 11.4 ± 7.1% and the “GSI Male” value [5, 9] was 0.48 ± 0.23%. For the same molecule, the “HSI Female” value [5, 9] was 5.1 ± 1.24%, the “HSI Male” value [5, 9] was 3.5 ± 0.50% and the “Length Female” value [5, 9] was 34.2 ± 2.1 mm. The “Length Male” value [5, 9] was 35.9 ± 1.4 mm, the “Weight Female” value [5, 9] was 443 ± 97 mg and the “Weight Male” value [5, 9] was 468 ± 54 mg.
